Reference: patent publication US20100055183A1 (OsteoGeneX Inc., priority 2008, published 2010)

Tests used:
mouse = test: Mouse bone formation assay, micro-CT after complete dosing schedule; type: in vivo; settings: versus control solution
Source text: (§1) Compounds useful in the methods of the present invention can be identified via a variety of methods known to one of skill in the art. Several exemplary methods for identifying such antagonists are described herein, including cell-based and in vitro techniques (Journal of Bone and Mineral Research 2006, 21(11), 1738-1749). A general method of identifying SOST antagonists involves evaluating the effects of antagonist candidates on bone formation under controlled conditions. Preferably bone formation is determined using micro-CT techniques on live animals. Preferred animals include rodents, more preferred are primates. Femur, tibia and vertebrae bones are particularly useful subjects for such study.
Briefly, the test animal is treated with a predetermined dose of a SOST antagonist candidate. […]
Once the dosing schedule has been completed, both test and control animals are examined to determine the quantity of bone formation present. […] Where necessary, levels of bone formation can be calculated by determining the volume of bone formation present in each animal. […]
For example, the mouse test animal is treated with a predetermined dose of a SOST antagonist candidate for a complete dosing schedule. […] Once the dosing schedule has been completed, both test and control animals are examined with sacrifice using micro-CT to determine the quantity of bone formation present.

Wnt pathway = test: Modulation of the Wnt pathway (FIGS. 1 and 2); settings: doses of 2.5 ng (low), 60 ng (medium), 125 ng (high)
Source text: as §1

C57BL/6 mice [1] = test: Serum osteocalcin bone formation marker, EIA Elisa, in treated mice; type: in vivo, mouse; settings: four month old male C57BL/6 mice, 5 mg/kg, daily i.p. for 30 days
Source text: […] Study endpoints included a biochemical marker of bone formation; osteocalcin, measured by EIA Elisa, and measurement of tibia trabecular bone volume by mico-CT analysis.

C57BL/6 mice [2] = test: Bone volume in treated mice by pQCT / micro-CT analysis; type: in vivo, mouse; settings: four month old male C57BL/6 mice, 0.1 mg/kg, daily i.p. for 30 days
Protocol: Four month old male C57BL/6 mice were treated daily with saline vehicle or the sclerostin inhibitor of trimeprazine tartrate at 0.1 mg/kg (via i.p) for 30 days. […]

Compound | bone growth (quantity of bone formation present) (mouse) | modulation of the Wnt pathway to promote bone growth (Wnt pathway) | percent increase in serum osteocalcin bone formation marker over saline controls (C57BL/6 mice [1]) [%] | increase in bone volume for the femur over baseline controls (C57BL/6 mice [2])
CCN(CC)C(C)CN1c2ccccc2Sc2ccccc21 (stereo not drawn) [ethopropazine] | promoting bone growth | modulating the Wnt pathway | – | –
CC(CN(C)C)CN1c2ccccc2Sc2ccccc21 (stereo not drawn) [trimeprazine] | promoting bone growth | modulating the Wnt pathway | – | –
trimeprazine tartrate | – | – | 46 | about 8%
